From paper PMC2956650, “The Dopamine Metabolite 3-Methoxytyramine Is a Neuromodulator” (PLoS ONE, 2010)
Like-named read-outs stand apart in the source and are kept apart here.

Target: T1, human trace amine associated receptor 1 (hTAAR1) (Homo sapiens, UniProt Q96RJ0)
T1 construct: gene TAAR1; hTAAR1 with the first nine amino acids of the β2-adrenergic receptor added at N-terminus
T1 sequence (Q96RJ0 1-339): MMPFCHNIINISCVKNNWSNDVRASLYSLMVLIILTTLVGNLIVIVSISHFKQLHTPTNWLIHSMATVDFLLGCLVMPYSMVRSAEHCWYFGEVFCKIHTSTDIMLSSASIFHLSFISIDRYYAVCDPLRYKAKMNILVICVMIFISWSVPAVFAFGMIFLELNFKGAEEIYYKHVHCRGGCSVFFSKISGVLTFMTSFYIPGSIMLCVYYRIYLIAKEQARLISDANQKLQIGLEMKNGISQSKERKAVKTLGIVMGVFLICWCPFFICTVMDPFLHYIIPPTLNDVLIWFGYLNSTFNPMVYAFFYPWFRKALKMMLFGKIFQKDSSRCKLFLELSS
Test: [3H]-cAMP accumulation (column assay) in HEK-293 cells transfected with hTAAR1; no effect in mock cells
Type: cell-based

| Compound | EC50 [µM] | EC50 (read-out: EC50) [µM] |
| --- | --- | --- |
| COc1cc(CCN)ccc1O [3-MT, 3-methoxytyramine] | 0.7 ± 0.18 |  |
| NCCc1ccc(O)cc1 [tyramine] |  | 0.32 ± 0.1 |
